Activity calls are given as the source filed them. No cut-off for these calls is given here.
Experiments:
MM1.S [1] = assay: Antiproliferative activity against human MM1.S cells assessed as inhibition of cell growth incubated for 72 hrs by celltiter-glo assay; assay type: functional, cell-based
RPMI-8226 = assay: Antiproliferative activity against human RPMI-8226 cells assessed as inhibition of cell growth incubated for 72 hrs by celltiter-glo assay; assay type: functional, cell-based; details: RPMI-8226, 72 h
MV4-11 = assay: Antiproliferative activity against human MV4-11 cells assessed as inhibition of cell growth incubated for 72 hrs by celltiter-glo assay; assay type: functional, cell-based; details: MV4-11, 72 h
LoVo = assay: Antiproliferative activity against human LoVo cells assessed as inhibition of cell growth incubated for 72 hrs by celltiter-glo assay; assay type: functional, cell-based
SW872 = assay: Antiproliferative activity against human SW872 cells assessed as inhibition of cell growth incubated for 72 hrs by celltiter-glo assay; assay type: functional, cell-based; details: SW872, 72 h
[2] = target: Ran-specific GTPase-activating protein (Homo sapiens, UniProt P43487); assay: Inhibition of RANBP1 nuclear export in human U2OS cells assessed as increase in fluorescence intensity measured for 15 mins by DAPI staining based fluorescence microscopic analysis; assay type: cell-based
Ran-specific GTPase-activating protein, sequence (P43487 whole entry): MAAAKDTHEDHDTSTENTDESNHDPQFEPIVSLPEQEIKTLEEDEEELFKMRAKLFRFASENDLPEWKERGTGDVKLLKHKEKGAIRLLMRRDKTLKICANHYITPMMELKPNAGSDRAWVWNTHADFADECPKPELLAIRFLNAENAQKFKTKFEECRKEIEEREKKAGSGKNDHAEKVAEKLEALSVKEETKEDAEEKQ

[3] = target: Exportin-1 (Homo sapiens) (UniProt O14980); assay: Reversible binding affinity to CRM1 in human U2OS cells incubated for 4 hrs by DAPI staining based fluorescence microscopic analysis; assay type: cell-based
Exportin-1 (Homo sapiens), sequence (O14980 whole entry): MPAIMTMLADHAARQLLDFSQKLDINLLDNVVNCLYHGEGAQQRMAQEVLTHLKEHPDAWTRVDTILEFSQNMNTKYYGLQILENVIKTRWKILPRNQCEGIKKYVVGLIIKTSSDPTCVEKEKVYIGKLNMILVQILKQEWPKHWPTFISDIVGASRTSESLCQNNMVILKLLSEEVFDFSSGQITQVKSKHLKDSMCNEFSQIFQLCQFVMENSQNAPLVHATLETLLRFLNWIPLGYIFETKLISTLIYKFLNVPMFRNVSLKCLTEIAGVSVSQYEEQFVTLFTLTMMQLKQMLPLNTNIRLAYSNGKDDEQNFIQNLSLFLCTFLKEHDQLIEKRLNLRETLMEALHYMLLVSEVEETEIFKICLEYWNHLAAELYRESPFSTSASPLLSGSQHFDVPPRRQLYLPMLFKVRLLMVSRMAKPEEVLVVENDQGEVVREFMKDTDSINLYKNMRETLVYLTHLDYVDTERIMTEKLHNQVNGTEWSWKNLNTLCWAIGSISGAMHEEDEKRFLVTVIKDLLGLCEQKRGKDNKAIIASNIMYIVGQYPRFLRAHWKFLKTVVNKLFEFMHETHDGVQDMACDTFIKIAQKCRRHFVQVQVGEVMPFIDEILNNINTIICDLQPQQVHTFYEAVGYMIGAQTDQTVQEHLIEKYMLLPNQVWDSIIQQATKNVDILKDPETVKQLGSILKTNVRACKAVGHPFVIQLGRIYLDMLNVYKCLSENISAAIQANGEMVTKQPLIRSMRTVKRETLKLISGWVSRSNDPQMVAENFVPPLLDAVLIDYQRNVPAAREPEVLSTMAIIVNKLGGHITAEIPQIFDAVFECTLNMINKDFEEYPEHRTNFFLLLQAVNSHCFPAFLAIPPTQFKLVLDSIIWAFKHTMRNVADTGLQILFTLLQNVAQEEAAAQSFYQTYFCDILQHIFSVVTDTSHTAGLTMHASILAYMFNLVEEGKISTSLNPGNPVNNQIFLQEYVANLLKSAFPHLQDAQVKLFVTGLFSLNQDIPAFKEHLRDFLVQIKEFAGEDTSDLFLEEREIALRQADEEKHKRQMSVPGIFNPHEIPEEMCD

[4] = target: Exportin-1 (Homo sapiens) (UniProt O14980); assay: (§1) Competitive inhibition of human recombinant CRM1 at 2 uM incubated for 2 hrs in presence of 3-(1-((E)-3-(methoxyamino)-3-oxo-2-(pyrimidin-5-yl)prop-1-en-1-yl)-1H-1,2,4-triazol-3-yl)-5-(trifluoromethyl)phenyl 3-(5-((3aS,4S,6aR)-2-oxohexahydro-1H-thieno[3,4-d]imidazol-4-yl)pentanamido)propanoate by pull down based Western blot analysis
[5] = target: Exportin-1 (Homo sapiens) (UniProt O14980); assay: as §1, with “Reversible competitive” for “Competitive”
MM1.S [6] = assay: Inhibition of CRM1 protein expression in human MM1.S cells at 0.25 to 1.25 uM by Western blot analysis; assay type: functional, cell-based; details: dose 0.25-1.25 µM, time 2-24 hrs
MM1.S [7] = assay: Induction of apoptosis in human MM1.S cells assessed as increase in cleaved caspase level at 0.5 to 1 uM incubated for 48 hrs by Western blot analysis; assay type: functional, cell-based; details: dose 0.5-1 µM
[8] = target: Exportin-1 (Homo sapiens) (UniProt O14980); assay: Inhibition of CRM1 in human MM1.S cells assessed as accumulation of IkappaB protein level at 0.5 to 1 uM incubated for 24 hrs by Western blot analysis; assay type: cell-based; details: dose 0.5-1 µM
[9] = Metabolic stability in human liver microsomes assessed as half life measured upto 60 mins in presence of NADPH by LC/MS-MS analysis; assay type: ADME, Microsome
[10] = Metabolic stability in mouse liver microsomes assessed as half life measured upto 60 mins in presence of NADPH by LC/MS-MS analysis; assay type: ADME, Microsome
[11] = Metabolic stability in rat liver microsomes assessed as half life measured upto 60 mins in presence of NADPH by LC/MS-MS analysis; assay type: ADME, Microsome
[12] = Metabolic stability in monkey liver microsomes assessed as half life measured upto 60 mins in presence of NADPH by LC/MS-MS analysis; assay type: ADME, Macaca mulatta, Microsome; details: rhesus monkey
[13] = Metabolic stability in mouse liver microsomes assessed as intrinsic clearance measured upto 60 mins in presence of NADPH by LC/MS-MS analysis; assay type: ADME, Microsome; details: read-out: CLH
[14] = Metabolic stability in monkey liver microsomes assessed as intrinsic clearance measured upto 60 mins in presence of NADPH by LC/MS-MS analysis; assay type: ADME, Macaca mulatta, Microsome; details: rhesus monkey, read-out: CLH
[15] = Half life in male Sprague-Dawley rat at 15 mg/kg, po measured upto 30 hrs by LC-MS/MS analysis; assay type: ADME, organism-based; details: in vivo
[16] = Cmax in male Sprague-Dawley rat at 10 mg/kg, po measured upto 30 hrs by LC-MS/MS analysis; assay type: ADME, organism-based; details: in vivo
[17] = Cmax in male Sprague-Dawley rat at 15 mg/kg, po measured upto 30 hrs by LC-MS/MS analysis; assay type: ADME, organism-based; details: in vivo
[18] = Tmax in male Sprague-Dawley rat at 10 mg/kg, po measured upto 30 hrs by LC-MS/MS analysis; assay type: ADME, organism-based; details: in vivo
[19] = AUC (0 to t) in male Sprague-Dawley rat at 30 mg/kg, po measured upto 30 hrs by LC-MS/MS analysis; assay type: ADME, organism-based; details: in vivo
[20] = AUC (0 to infinity) in male Sprague-Dawley rat at 10 mg/kg, po measured upto 30 hrs by LC-MS/MS analysis; assay type: ADME, organism-based; details: in vivo
[21] = AUC (0 to infinity) in male Sprague-Dawley rat at 30 mg/kg, po measured upto 30 hrs by LC-MS/MS analysis; assay type: ADME, organism-based; details: in vivo
[22] = Oral bioavailability in male Sprague-Dawley rat at 15 mg/kg measured upto 30 hrs by LC-MS/MS analysis; assay type: ADME, organism-based; details: in vivo
[23] = Oral bioavailability in male Sprague-Dawley rat at 30 mg/kg measured upto 30 hrs by LC-MS/MS analysis; assay type: ADME, organism-based; details: in vivo
[24] = AUC in male Sprague-Dawley rat plasma at 10 mg/kg, IG measured at 6 hrs by LC-MS/MS analysis; assay type: ADME, organism-based; details: po
[25] = Toxicity in Sprague-Dawley rat at 30 mg/kg, po measured upto 48 hrs; assay type: organism-based; details: in vivo
[26] = Toxicity in BALB/c mouse assessed as organ abnormalities at 30 to 60 mg/kg, po administered once daily for 21 days; assay type: organism-based; details: in vivo, 504 h, dose 30-60 mg/kg, time 21 day
[27] = Toxicity in BALB/c mouse assessed as shortened intestine at 90 to 120 mg/kg, po administered once daily for 21 days; assay type: organism-based; details: in vivo, 504 h, dose 90-120 mg/kg, time 21 day
MM1.S [28] = assay: Antitumor activity against human MM1.S cells xenografted in NOD-SCID mouse assessed as tumor growth inhibition at 30 mg/kg, po qd measured upto 21 days; assay type: functional; details: 504 h, time <= 21 day, read-out: TGI
MM1.S [29] = assay: Antitumor activity against human MM1.S cells xenografted in NOD-SCID mouse assessed as tumor growth inhibition at 60 mg/kg, po qd measured upto 21 days; assay type: functional; details: 504 h, time <= 21 day, read-out: TGI
[30] = Toxicity in NOD-SCID mouse assessed as appearance of spindle shape in tumor at 60 mg/kg, po measured every 2 days for 21 days by H and E staining based analysis; assay type: organism-based; details: in vivo, 504 h, time 21 day
[31] = Toxicity in NOD-SCID mouse assessed as reduction in number of tumor cells at 60 mg/kg, po measured every 2 days for 21 days by H and E staining based analysis; assay type: organism-based; details: in vivo, 504 h, time 21 day
[32] = Toxicity in NOD-SCID mouse assessed as reduction in cell density in tumor at 60 mg/kg, po measured every 2 days for 21 days by H and E staining based analysis; assay type: organism-based; details: in vivo, 504 h, time 21 day
[33] = Toxicity in NOD-SCID mouse assessed as hyperplasia of crypt in intestine at 15 to 60 mg/kg, po measured every 2 days for 21 days by H and E staining based analysis; assay type: organism-based; details: in vivo, 504 h, dose 15-60 mg/kg, time 21 day
[34] = Toxicity in NOD-SCID mouse assessed as decrease in villus height to crypt depth ratio at 15 to 60 mg/kg, po measured every 2 days for 21 days by H and E staining based analysis; assay type: organism-based; details: in vivo, 504 h, dose 15-60 mg/kg, time 21 day

IC50 (MM1.S [1]): 87.1 nM | IC50 (RPMI-8226): 304 nM | IC50 (MV4-11): 43.5 nM | IC50 (LoVo): 2040 nM | IC50 (SW872): 753 nM | IC50 [2]: 620 nM | Activity [3]: Active | inhibition [4]: Active | inhibition [5]: Active | Activity [8]: Active | half-life [9]: > 2 h | half-life [10]: > 2 h | half-life [11]: > 2 h | half-life [12]: > 2 h | microsomal CLint [13]: 12.6 µL/min/mg | microsomal CLint [14]: 8.6 µL/min/mg | half-life [15]: 4 h | Cmax [16]: 899 ng/mL | Cmax [17]: 793 ng/mL | Tmax [18]: 0.3 h | AUC(0-t) at 30 h [19]: 9000 ng·h/mL | AUC(0-inf) [20]: 4180 ng·h/mL | AUC(0-inf) [21]: 10400 ng·h/mL | bioavailability [22]: 52.1% | bioavailability [23]: 46.3% | AUC at 6 h [24]: 2480 ng·h/mL
Structure (SMILES): CONC(=O)/C(=C/n1cnc(-c2cc(C(F)(F)F)cc(C(F)(F)F)c2)n1)c1cncnc1
inhibition (MM1.S [6]): Time-dependent-effect | Activity (MM1.S [7]): Active | Activity [25]: Non-toxic | Activity [26]: Non-toxic | Activity [27]: Non-toxic | inhibition in vivo at 30 mg/kg (MM1.S [28]): 86.6% | inhibition in vivo at 60 mg/kg (MM1.S [29]): 87% | Activity [30]: Non-toxic | Activity [31]: Non-toxic | Activity [32]: Non-toxic | Activity [33]: Non-toxic | Activity [34]: Non-toxic

From ChEMBL document CHEMBL6083277, “Discovery of SZJK-0421: A Novel Potent, Low Toxicity, Selective Second Generation of CRM1 Inhibitor for the Treatment of Both Hematological and Solid Tumors” (J Med Chem, 2024)
